Patent publication US20010044151A1, “Ligands for modulating the expression of exogenous genes via an ecdysone receptor complex” (priority 1998, published 2001)

Target: T1, VgEcR and RXR heterodimeric receptor (pVgRXR) with pIND/LacZ(SPI) in CHO cells (Drosophila melanogaster, UniProt P34021, E282G/G283S/G286V)
T1 construct: host or cells: CHO cells (ATCC CCL-61), transiently transfected or stably transformed with pVgRXR
T1 sequence (P34021 1-878 E282G/G283S/G286V): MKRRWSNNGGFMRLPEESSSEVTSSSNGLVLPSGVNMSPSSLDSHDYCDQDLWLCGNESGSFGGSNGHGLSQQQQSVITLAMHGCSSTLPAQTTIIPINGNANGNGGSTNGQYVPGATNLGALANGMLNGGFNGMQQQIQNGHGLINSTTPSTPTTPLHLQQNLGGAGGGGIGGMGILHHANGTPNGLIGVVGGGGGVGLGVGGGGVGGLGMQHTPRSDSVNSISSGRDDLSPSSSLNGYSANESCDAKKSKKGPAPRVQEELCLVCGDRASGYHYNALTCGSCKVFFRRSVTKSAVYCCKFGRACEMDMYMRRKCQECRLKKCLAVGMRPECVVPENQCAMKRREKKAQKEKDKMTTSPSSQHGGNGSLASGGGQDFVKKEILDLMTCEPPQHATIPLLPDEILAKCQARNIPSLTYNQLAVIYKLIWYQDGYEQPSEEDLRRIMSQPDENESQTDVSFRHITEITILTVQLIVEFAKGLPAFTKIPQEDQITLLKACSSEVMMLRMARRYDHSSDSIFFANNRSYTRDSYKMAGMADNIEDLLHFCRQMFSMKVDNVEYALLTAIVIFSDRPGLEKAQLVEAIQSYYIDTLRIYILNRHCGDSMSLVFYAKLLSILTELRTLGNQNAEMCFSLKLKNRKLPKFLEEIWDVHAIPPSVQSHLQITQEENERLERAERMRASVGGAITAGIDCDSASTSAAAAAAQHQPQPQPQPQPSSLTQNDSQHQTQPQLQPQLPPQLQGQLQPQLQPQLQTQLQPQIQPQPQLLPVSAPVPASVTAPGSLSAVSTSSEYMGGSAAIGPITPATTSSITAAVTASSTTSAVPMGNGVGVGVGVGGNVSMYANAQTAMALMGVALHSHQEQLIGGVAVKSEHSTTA
T1 sequence (P19793 1-462 partner): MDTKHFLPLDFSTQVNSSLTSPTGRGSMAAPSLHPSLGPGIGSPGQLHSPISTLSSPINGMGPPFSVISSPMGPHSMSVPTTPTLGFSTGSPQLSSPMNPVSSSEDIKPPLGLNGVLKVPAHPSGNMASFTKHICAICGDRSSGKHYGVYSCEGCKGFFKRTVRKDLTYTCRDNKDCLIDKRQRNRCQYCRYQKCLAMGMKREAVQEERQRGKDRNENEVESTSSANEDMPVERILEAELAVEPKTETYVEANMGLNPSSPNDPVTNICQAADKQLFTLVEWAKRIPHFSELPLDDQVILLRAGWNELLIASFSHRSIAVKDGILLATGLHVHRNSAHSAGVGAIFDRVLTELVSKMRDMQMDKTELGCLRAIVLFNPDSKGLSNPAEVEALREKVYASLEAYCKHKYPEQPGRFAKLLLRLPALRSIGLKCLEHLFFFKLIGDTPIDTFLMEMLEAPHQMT
Experiment: β-Galactosidase gene activation in stably transformed CHO cells
Format: cell-based
Conditions: ligand 10 μM; for β-Galactosidase activity: average of triplicate samples, no ligand = 200; for Induction Ratio (RLU in presence and absence of the ligand): β-galactosidase
Excerpt: pVgRXR (Invitrogen Corp., Carlsbad, Calif.) is an […] plasmid that expresses both VgEcR and RXR to form a modified heterodimeric nuclear receptor (see No, D., et. al., (1996) Proc. Natl. Acad. Sci. USA, 93, 3346-3351). The ecdysone receptor (VgEcR) is derived from the natural Drosophila ecdysone receptor and modified to contain the VP16 transactivation domain (see Cress, W. D., and Triezenberg, S. J. (1991), Science 251, 87-90; Sadowski, I., et. al (1988) Nature 335, 563-564; Triezenberg, S. J et. al., (1988), Genes Dev 2, 718-729; Triezenberg, S. J., et. al., (1988), Genes Dev 2, 730-742). RXR as the mammalian homologue of USP (ultraspiracle), the natural partner to the Drosophila ecdysone receptor (see Yao, T. -P., et. al., (1993), Nature 366, 476-479, Yao, T. -P., et. al., (1992), Cell 71, 63-72). The P-box region of the VgEcR DNA binding domain was modified to recognize the hybrid ecdysone response element that consists of one half-site from the gluccorticoid response element (see Umesono, K., and Evans, R. M. (1989), Cell 57, 1139-1146) and one half-site from the natural ecdysone response element. This hybrid response element reduces any possible interaction with the farsenoid X receptor that may bind the natural ecdysone responsive element (EcRE). The cytomegalovirus enhancer-promoter drives expression of VgEcR, and the Rous sarcoma virus promoter drives expression of RXR. The vector pIND (Invitrogen Corp) is a 5024 bp vector based on pcDNA3.1. It contains five hybrid E/GREs recognized by the modified ecdysone receptor expressed from pVgRXR and a minimal heat shock promoter (see Yao, T. P., et. al., (1993), Nature, 366, 476-479). pIND/lacZ (Invitrogen Crop.) is a 8170 bp plasmid that contains the β-galactosidase gene as a reporter enzyme. Cotransfection of pIND/lacZ and pVgRXR results in the induction of β-galactosidase expression upon addition of ecdysone agonists such as muristerone A. The reporter plasmid pIND/luc was constructed by subcloning the firefly luciferase gene from pGL3 (Promega/E1741) as a Nhe I-BamHI fragment into pIND, also digested with Nhe I and BamHI.
CHO cells stably transformed with pVgRXR and pIND/LacZ(SPI) (Invitrogen Crop.) were maintained in Hams F-12 media containing 10% FBS, 2 mM glutamine, 300 μg/ml Zeocin (Invitrogen Crop.) and 300 μg/ml Hygromycin B. pIND(SPI), an alternative to the pIND vector, can be induced to absolute expression levels five-fold greater than that of pIND due to the presence of 3 cis-acting SPI elements. Basal expression levels are correspondingly greater.
Stock solutions (10^−2 M) were prepared for muristerone A and the non-steroidal ligands of the present invention in ethanol and acetone respectively, and stored at −20° C. Twenty-four hours after transfection, a test compound was added at a final concentration of 10 μM (10^−5 M) to each 1 ml cell culture well. Muristerone A (Sigma, M7888) at 10 μM concentration was used as a positive control. Acetone alone was added as a negative control.
Reporter gene expression was evaluated 24-48 hours after treatment of transiently transfected cells or 24 hours after treatment of the stably transformed cell line with test ligands. β-galactosidase was assayed by either staining fixed cells or assaying for enzymatic activity in cellular lysates. β-galactosidase catalyzes the hydrolysis of the β-galactoside, X-gal (5-bromo-4-chloro-3-indolyl-β-galactopyranoside) producing a blue color within the fixed cells (Invitrogen, K1465-01) that can be visualized under a microscope. Alternatively, reporter lysis buffer (RLB; Promega/E397A) was used to lyse the cells for the detection of β-galactosidase activity using a chemiluminescent substrate, Galacto-Star (Tropix/BM100S). The cells within each 12-well plate were lysed with 250 μl of RLB. Twenty μl of each extract was assayed with 100 μl of substrate. […]

SMILES	β-Galactosidase activity [RLU]	Induction Ratio (RLU in presence and absence of the ligand)
CCc1ccc(C(=O)NN(C(=O)c2cc(C)cc(C)c2)C(C)(C)C)cc1 [CE-1, N-(4-ethylbenzoyl)-N′-(3,5-dimethylbenzoyl)-N′-tert-butyl-hydrazine, reference compound]	323	2
COc1cccc(C(=O)NN(C(=O)c2cc(C)cc(C)c2)C(C)(C)C)c1C [Ligand 3]	681	3
CC(C)CC[C@@H](O)[C@](C)(O)[C@H]1CC[C@@]2(O)C3=CC(=O)[C@]4(O)C[C@@H](O)[C@@H](O)C[C@]4(C)[C@H]3[C@H](O)C[C@]12C [CE-3, muristerone A, reference compound]	9830	49
CCc1c(OC)cccc1C(=O)NN(C(=O)c1cc(F)cc(F)c1)C(C)(C)C [Ligand 4]	1963	10
Cc1cc(C)cc(C(=O)N(NC(=O)c2ccc3c(c2C)OCCO3)C(C)(C)C)c1 [Ligand 2]	536	3
CCOc1cccc(C(=O)NN(C(=O)c2cc(C)cc(C)c2)C(C)(C)C)c1CC [Ligand 12]	9830	49
CC(C)CC[C@@H](O)[C@](C)(O)[C@H]1CC[C@@]2(O)C3=CC(=O)[C@@H]4C[C@@H](O)[C@@H](O)C[C@]4(C)[C@H]3CC[C@]12C [CE-4, ponasterone A, reference compound]	10386	52
CCc1c(OC)cccc1C(=O)NN(C(=O)c1cccc(OC)c1)C(C)(C)C [Ligand 1]	1123	6
CC(C)(C)N(NC(=O)c1ccccc1)C(=O)c1ccccc1 [CE-2, 1,2-dibenzoyl-1-tert-butyl-hydrazine, reference compound]	145	1
CCc1c(OC)cccc1C(=O)NN(C(=O)c1cc(C)cc(C)c1)C(C)(C)C [Ligand 5]	11599	58
CCc1c(OC)cccc1C(=O)NN(C(=O)c1cc(Cl)cc(Cl)c1)C(C)(C)C [Ligand 13]	6667	33
